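These data come from cells grown in 96-well plates and exposed to compound for 48 hours at five concentrations. GI50 marks 50% less growth.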 Calls of active or inactive are those of the source. No stated cut-off is given here; in the data, active = GI50 up to about 1.1 µM and inactive = higher.
Experiments:
Assay in all cases: NCI-60 cell line screen, 48 h
SNB-78 = tested on: SNB-78
DMS-114 = tested on: DMS-114
DLD-1 = tested on: DLD-1
KM-20L2 = tested on: KM-20L2
DMS-273 = tested on: DMS-273
XF498 = tested on: XF498
LXFL 529 = tested on: LXFL 529
HOP-18 = tested on: HOP-18

Measured: GI50

O=C(/C=C/c1ccccc1O)c1ccccc1O
inactive: SNB-78 > 100 µM | DMS-114 16.7 µM | DLD-1 > 100 µM | KM-20L2 > 100 µM | DMS-273 > 100 µM

COc1ccc([C@@H]2CC(=O)NCCCCNCCCN2)cc1
inactive: SNB-78 > 100 µM | DMS-114 > 100 µM | DLD-1 > 100 µM | KM-20L2 > 100 µM | DMS-273 > 100 µM | XF498 > 100 µM | LXFL 529 > 100 µM | HOP-18 > 100 µM

CCCCCCCCCCCCCC(=O)OCC1OC(n2cc(F)c(=O)[nH]c2=O)C(N)C(OC(=O)CCCCCCCCCCCCC)C1O (stereo not given)
inactive: SNB-78 > 100 µM | DMS-114 > 100 µM | KM-20L2 > 100 µM | DMS-273 > 100 µM | LXFL 529 > 100 µM

O=C(Cc1ccccc1)NN1C(=O)C(Cl)C1c1cc(Br)ccc1O (stereo not given)
inactive: SNB-78 8 µM | DMS-114 2.23 µM | DLD-1 3.33 µM | KM-20L2 9.64 µM | DMS-273 5.19 µM | XF498 7.76 µM | LXFL 529 5.68 µM | HOP-18 5.01 µM

O=C(/C=C/c1ccccc1Cl)c1cccc2ccccc12
inactive: SNB-78 20.3 µM | DMS-114 4.46 µM | DLD-1 8.51 µM | KM-20L2 7.06 µM | DMS-273 13.4 µM | LXFL 529 3.06 µM | HOP-18 16.1 µM

Cc1cc(Cl)cc2c1NC(=O)C2(O)CC(=O)c1ccc(F)cc1 (stereo not given)
inactive: SNB-78 31.4 µM | DLD-1 96.8 µM | KM-20L2 > 100 µM | DMS-273 77.3 µM | XF498 32.1 µM | HOP-18 11.3 µM

O=C(O)CCCSC(=O)Nc1ccc(/N=N/c2ccccc2)cc1
inactive: SNB-78 > 100 µM | DMS-114 > 100 µM | KM-20L2 > 100 µM | DMS-273 > 100 µM | LXFL 529 > 100 µM

N#CC(NNC(=O)Cc1ccccc1)c1ccccc1O (stereo not given)
inactive: SNB-78 80.5 µM | DLD-1 47 µM | DMS-273 6.59 µM | LXFL 529 15.2 µM | HOP-18 13.2 µM

Oc1ccccc1-c1cnnc(-c2ccccc2O)c1
inactive: SNB-78 33.3 µM | DMS-114 15 µM | DLD-1 30.6 µM | KM-20L2 43.5 µM | XF498 16.2 µM | LXFL 529 21.5 µM | HOP-18 22.1 µM

CCOP(=O)(OCC)/C(C#N)=C\c1ccsc1
inactive: SNB-78 > 100 µM | DMS-114 > 100 µM | DLD-1 > 100 µM | KM-20L2 > 100 µM | DMS-273 > 100 µM | XF498 > 100 µM | LXFL 529 > 100 µM | HOP-18 > 100 µM

CC(=O)O[C@H]1C(=O)[C@@]2(C)C(C(OC(=O)c3ccccc3)C3[C@@H](O)C(OC(=O)[C@@H](O)[C@H](NC(=O)c4ccccc4)c4ccc(C(F)(F)F)cc4)C(C)=C1C3(C)C)[C@]1(OC(C)=O)CO[C@@H]1C[C@@H]2O (stereo not given in full)
inactive: SNB-78 > 25 µM | DMS-114 11.3 µM | DLD-1 > 25 µM | KM-20L2 8.73 µM | DMS-273 11.7 µM | LXFL 529 15.2 µM
